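Tested at 5 concentrations; 48 h exposure; 96-well plates; endpoints linearly interpolated, else capped at highest concentration. Abbreviation: GI50, concentration required for 50% inhibition of growth. The concentration for full growth arrest is given as TGI.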
Columns and labels:
Assay in all cases: NCI-60 cell line screen, 48 h
[1] = tested on: 786-0 renal
[2] = tested on: A498 renal
[3] = tested on: A549 NSCLC
[4] = tested on: ACHN renal
[5] = tested on: BT-549 breast
[6] = tested on: CAKI-1 renal
[7] = tested on: CCRF-CEM leukemia
[8] = tested on: COLO 205 colon
[9] = tested on: DU-145 prostate
[10] = tested on: EKVX NSCLC
[11] = tested on: HCC-2998 colon
[12] = tested on: HCT-116 colon
[13] = tested on: HCT-15 colon
[14] = tested on: HL-60(TB) leukemia
[15] = tested on: HOP-62 NSCLC
[16] = tested on: HOP-92 NSCLC
[17] = tested on: HS 578T breast
[18] = tested on: HT29 colon
[19] = tested on: IGROV1 ovarian
[20] = tested on: K-562 leukemia
[21] = tested on: KM12 colon
[22] = tested on: LOX IMVI melanoma
[23] = tested on: M14 melanoma
[24] = tested on: MALME-3M melanoma
[25] = tested on: MCF7 breast
[26] = tested on: MDA-MB-231 breast
[27] = tested on: MDA-MB-435
[28] = tested on: MOLT-4 leukemia
[29] = tested on: NCI-H226 lung
[30] = tested on: NCI-H23 lung
[31] = tested on: NCI-H460 lung
[32] = tested on: NCI-H522 lung
[33] = tested on: NCI/ADR-RES ovarian
[34] = tested on: OVCAR-3 ovarian
[35] = tested on: OVCAR-4 ovarian
[36] = tested on: OVCAR-5 ovarian
[37] = tested on: OVCAR-8 ovarian
[38] = tested on: PC-3 prostate
[39] = tested on: RPMI-8226 leukemia
[40] = tested on: RXF 393 renal
[41] = tested on: SF-268 CNS
[42] = tested on: SF-295 CNS
[43] = tested on: SF-539 CNS
[44] = tested on: SK-MEL-2 melanoma
[45] = tested on: SK-MEL-28 melanoma
[46] = tested on: SK-MEL-5 melanoma
[47] = tested on: SK-OV-3 ovarian
[48] = tested on: SN12C renal
[49] = tested on: SNB-19 CNS
[50] = tested on: SNB-75 CNS
[51] = tested on: SR leukemia
[52] = tested on: SW-620 colon
[53] = tested on: T-47D breast
[54] = tested on: TK-10 renal
[55] = tested on: U251 CNS
[56] = tested on: UACC-257 melanoma
[57] = tested on: UACC-62 melanoma
[58] = tested on: UO-31 renal

**Q.** Which GI50 [1] does the source give for `O=c1[nH]c(-c2cccc(F)c2)cc2cc(F)ccc12` here?
**A.** 2870 nM

**Q.** And the TGI [1]?
**A.** > 100000 nM

**Q.** And the GI50 [2]?
**A.** 244 nM

**Q.** And the TGI [2]?
**A.** 2940 nM

**Q.** And the GI50 [3]?
**A.** 798 nM

**Q.** What about the TGI [3] of the same compound?
**A.** > 100000 nM

**Q.** And the GI50 [4]?
**A.** 771 nM

**Q.** What about the TGI [4] of the same compound?
**A.** > 100000 nM

**Q.** What about the GI50 [5] of the same compound?
**A.** 737 nM

**Q.** And the TGI [5]?
**A.** > 100000 nM

**Q.** And the GI50 [6]?
**A.** 264 nM

**Q.** What about the TGI [6] of the same compound?
**A.** > 100000 nM

**Q.** What about the GI50 [7] of the same compound?
**A.** 369 nM

**Q.** What about the TGI [7] of the same compound?
**A.** > 100000 nM

**Q.** And the GI50 [8]?
**A.** 338 nM

**Q.** What about the TGI [8] of the same compound?
**A.** > 100000 nM

**Q.** And the GI50 [9]?
**A.** 507 nM

**Q.** What about the TGI [9] of the same compound?
**A.** > 100000 nM

**Q.** And the GI50 [10]?
**A.** 2340 nM

**Q.** What about the TGI [10] of the same compound?
**A.** > 100000 nM

**Q.** And the GI50 [11]?
**A.** 1910 nM

**Q.** And the TGI [11]?
**A.** > 100000 nM

**Q.** And the GI50 [12]?
**A.** 195 nM

**Q.** And the TGI [12]?
**A.** > 100000 nM

**Q.** What about the GI50 [13] of the same compound?
**A.** 119 nM

**Q.** What about the TGI [13] of the same compound?
**A.** > 100000 nM

**Q.** And the GI50 [14]?
**A.** 199 nM

**Q.** What about the TGI [14] of the same compound?
**A.** 684 nM

**Q.** And the GI50 [15]?
**A.** 495 nM

**Q.** And the TGI [15]?
**A.** > 100000 nM

**Q.** What about the GI50 [16] of the same compound?
**A.** > 100000 nM

**Q.** What about the TGI [16] of the same compound?
**A.** > 100000 nM

**Q.** What about the GI50 [17] of the same compound?
**A.** 381 nM

**Q.** And the TGI [17]?
**A.** > 72800 nM

**Q.** What about the GI50 [18] of the same compound?
**A.** 261 nM

**Q.** And the TGI [18]?
**A.** > 100000 nM

**Q.** What about the GI50 [19] of the same compound?
**A.** 822 nM

**Q.** And the TGI [19]?
**A.** > 100000 nM

**Q.** And the GI50 [20]?
**A.** 69.8 nM

**Q.** What about the TGI [20] of the same compound?
**A.** > 100000 nM

**Q.** And the GI50 [21]?
**A.** 307 nM

**Q.** And the TGI [21]?
**A.** > 100000 nM

**Q.** What about the GI50 [22] of the same compound?
**A.** 613 nM

**Q.** And the TGI [22]?
**A.** > 100000 nM

**Q.** And the GI50 [23]?
**A.** 160 nM

**Q.** And the TGI [23]?
**A.** > 100000 nM

**Q.** What about the GI50 [24] of the same compound?
**A.** > 100000 nM

**Q.** What about the TGI [24] of the same compound?
**A.** > 100000 nM

**Q.** And the GI50 [25]?
**A.** 329 nM

**Q.** And the TGI [25]?
**A.** > 100000 nM

**Q.** What about the GI50 [26] of the same compound?
**A.** 2370 nM

**Q.** And the TGI [26]?
**A.** > 100000 nM

**Q.** What about the GI50 [27] of the same compound?
**A.** 27.9 nM

**Q.** What about the TGI [27] of the same compound?
**A.** 79.7 nM

**Q.** And the GI50 [28]?
**A.** 568 nM

**Q.** What about the TGI [28] of the same compound?
**A.** > 100000 nM

**Q.** What about the TGI [29] of the same compound?
**A.** > 100000 nM

**Q.** And the GI50 [30]?
**A.** 1610 nM

**Q.** And the TGI [30]?
**A.** > 100000 nM

**Q.** And the GI50 [31]?
**A.** 389 nM

**Q.** What about the TGI [31] of the same compound?
**A.** > 100000 nM

**Q.** What about the GI50 [32] of the same compound?
**A.** 334 nM

**Q.** What about the TGI [32] of the same compound?
**A.** > 100000 nM

**Q.** And the GI50 [33]?
**A.** 268 nM

**Q.** What about the TGI [33] of the same compound?
**A.** > 100000 nM

**Q.** What about the GI50 [34] of the same compound?
**A.** 314 nM

**Q.** What about the GI50 [35] of the same compound?
**A.** > 90900 nM

**Q.** And the TGI [35]?
**A.** > 100000 nM

**Q.** What about the GI50 [36] of the same compound?
**A.** 1740 nM

**Q.** What about the TGI [36] of the same compound?
**A.** > 100000 nM

**Q.** What about the GI50 [37] of the same compound?
**A.** 951 nM

**Q.** And the TGI [37]?
**A.** > 100000 nM

**Q.** And the GI50 [38]?
**A.** 391 nM

**Q.** What about the TGI [38] of the same compound?
**A.** > 100000 nM

**Q.** What about the GI50 [39] of the same compound?
**A.** 355 nM

**Q.** And the TGI [39]?
**A.** > 100000 nM

**Q.** What about the GI50 [40] of the same compound?
**A.** 358 nM

**Q.** And the GI50 [41]?
**A.** > 82900 nM

**Q.** What about the TGI [41] of the same compound?
**A.** > 100000 nM

**Q.** And the GI50 [42]?
**A.** 305 nM

**Q.** What about the TGI [42] of the same compound?
**A.** > 100000 nM

**Q.** What about the GI50 [43] of the same compound?
**A.** 272 nM

**Q.** And the TGI [43]?
**A.** 1700 nM

**Q.** What about the GI50 [44] of the same compound?
**A.** 513 nM

**Q.** What about the TGI [44] of the same compound?
**A.** > 100000 nM

**Q.** What about the GI50 [45] of the same compound?
**A.** 7500 nM

**Q.** What about the TGI [45] of the same compound?
**A.** > 100000 nM

**Q.** What about the GI50 [46] of the same compound?
**A.** 334 nM

**Q.** What about the TGI [46] of the same compound?
**A.** > 100000 nM

**Q.** What about the GI50 [47] of the same compound?
**A.** 616 nM

**Q.** What about the TGI [47] of the same compound?
**A.** > 100000 nM

**Q.** What about the GI50 [48] of the same compound?
**A.** 1310 nM

**Q.** What about the TGI [48] of the same compound?
**A.** > 100000 nM

**Q.** And the GI50 [49]?
**A.** 664 nM

**Q.** What about the TGI [49] of the same compound?
**A.** > 100000 nM

**Q.** And the GI50 [50]?
**A.** 211 nM

**Q.** What about the TGI [50] of the same compound?
**A.** > 100000 nM

**Q.** What about the GI50 [51] of the same compound?
**A.** 71.2 nM

**Q.** What about the TGI [51] of the same compound?
**A.** > 100000 nM

**Q.** What about the GI50 [52] of the same compound?
**A.** 174 nM

**Q.** What about the TGI [52] of the same compound?
**A.** > 100000 nM

**Q.** And the GI50 [53]?
**A.** > 100000 nM

**Q.** What about the TGI [53] of the same compound?
**A.** > 100000 nM

**Q.** What about the GI50 [54] of the same compound?
**A.** > 50000 nM

**Q.** And the TGI [54]?
**A.** > 100000 nM

**Q.** And the GI50 [55]?
**A.** 470 nM

**Q.** And the TGI [55]?
**A.** > 100000 nM

**Q.** What about the GI50 [56] of the same compound?
**A.** > 100000 nM

**Q.** What about the TGI [56] of the same compound?
**A.** > 100000 nM

**Q.** And the GI50 [57]?
**A.** 571 nM

**Q.** What about the TGI [57] of the same compound?
**A.** > 100000 nM

**Q.** And the GI50 [58]?
**A.** 1650 nM

**Q.** And the TGI [58]?
**A.** > 100000 nM

— PubChem BioAssay (NCI)
